Holding throughout (assay): relative viability (nuclei count vs DMSO), 5 days (fraction); higher = more cells survive
Compound in experiment [1]: C[C@@H](C(=O)N[C@@H](C1CCCCC1)C(=O)N2CCC[C@H]2C(=O)N[C@@H]3[C@@H](CC4=CC=CC=C34)OCC#CC#CCO[C@@H]5CC6=CC=CC=C6[C@@H]5NC(=O)[C@@H]7CCCN7C(=O)[C@H](C8CCCCC8)NC(=O)[C@H](C)NC)NC [AZD5582] + Cc1nc(Nc2ncc(C(=O)Nc3c(C)cccc3Cl)s2)cc(N2CCN(CCO)CC2)n1 [Dasatinib] (partner 0.075 µM)
In short, it runs like this: (§1)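 Lung cancer cell lines were seeded in 1536-well plates and dosed by pin tool the next day, with either a single drug or a fixed anchor-drug dose combined with five library-drug doses (not always all listed) spaced in √10 steps. Five days later, one step fixed the cells and stained their nuclei (final 0.05% Triton X-100, 1% formaldehyde, 1 ug/ml Hoechst), and nuclei were counted on 4× images. Relative viability is the nuclei count in treated wells divided by the count in vehicle wells, and each value is the median of duplicate plates.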

Compound in experiment [2]: C[C@@H](C(=O)N[C@@H](C1CCCCC1)C(=O)N2CCC[C@H]2C(=O)N[C@@H]3[C@@H](CC4=CC=CC=C34)OCC#CC#CCO[C@@H]5CC6=CC=CC=C6[C@@H]5NC(=O)[C@@H]7CCCN7C(=O)[C@H](C8CCCCC8)NC(=O)[C@H](C)NC)NC [AZD5582] + C[C@]1(O)C[C@@H](c2nc(-c3ccc4ccc(-c5ccccc5)nc4c3)c3c(N)nccn32)C1 [Linsitinib] (partner 1 µM)
In a few lines:
as §1

Compound in experiment [3]: C[C@@H](C(=O)N[C@@H](C1CCCCC1)C(=O)N2CCC[C@H]2C(=O)N[C@@H]3[C@@H](CC4=CC=CC=C34)OCC#CC#CCO[C@@H]5CC6=CC=CC=C6[C@@H]5NC(=O)[C@@H]7CCCN7C(=O)[C@H](C8CCCCC8)NC(=O)[C@H](C)NC)NC [AZD5582] + CC1(C)CCC(c2ccc(Cl)cc2)=C(CN2CCN(c3ccc(C(=O)NS(=O)(=O)c4ccc(N[C@H](CCN5CCOCC5)CSc5ccccc5)c(S(=O)(=O)C(F)(F)F)c4)cc3)CC2)C1 [Navitoclax] (partner 0.5 µM)
In a few lines: as §1

Compound in experiment [4]: C[C@@H](C(=O)N[C@@H](C1CCCCC1)C(=O)N2CCC[C@H]2C(=O)N[C@@H]3[C@@H](CC4=CC=CC=C34)OCC#CC#CCO[C@@H]5CC6=CC=CC=C6[C@@H]5NC(=O)[C@@H]7CCCN7C(=O)[C@H](C8CCCCC8)NC(=O)[C@H](C)NC)NC [AZD5582] + CC(=O)c1c(C)c2cnc(Nc3ccc(N4CCNCC4)cn3)nc2n(C2CCCC2)c1=O [Palbociclib] (partner 0.5 µM)
In short, it runs like this:
as §1

Compound in experiment [5]: C[C@@H](C(=O)N[C@@H](C1CCCCC1)C(=O)N2CCC[C@H]2C(=O)N[C@@H]3[C@@H](CC4=CC=CC=C34)OCC#CC#CCO[C@@H]5CC6=CC=CC=C6[C@@H]5NC(=O)[C@@H]7CCCN7C(=O)[C@H](C8CCCCC8)NC(=O)[C@H](C)NC)NC [AZD5582] + CC(=O)Nc1cccc(-n2c(=O)n(C3CC3)c(=O)c3c(Nc4ccc(I)cc4F)n(C)c(=O)c(C)c32)c1 [Trametinib] (partner 0.02 µM)
In a few lines: as §1

Consider LOU-NH91, for which the relative viability stood at 0.553 in experiment [1] (first compound 0.001581 µM); 0.565 in experiment [1] (first compound 0.005 µM); 0.468 in experiment [1] (first compound 0.01581 µM); 0.657 in experiment [1] (first compound 0.05 µM); 0.964 in experiment [2] (first compound 0.001581 µM); 0.924 in experiment [2] (first compound 0.005 µM). Also, the relative viability amounted to 0.997 in experiment [2] (first compound 0.01581 µM); 1.04 in experiment [2] (first compound 0.05 µM); 0.652 in experiment [3] (first compound 0.001581 µM); 0.724 in experiment [3] (first compound 0.005 µM); 0.704 in experiment [3] (first compound 0.01581 µM); 0.678 in experiment [3] (first compound 0.05 µM). Also, the relative viability in experiment [4] (first compound 0.001581 µM) was found to be 0.529; in experiment [4] (first compound 0.005 µM), 0.54; in experiment [4] (first compound 0.01581 µM), 0.487; in experiment [4] (first compound 0.05 µM) it was 0.532; in experiment [5] (first compound 0.001581 µM), 0.772; in experiment [5] (first compound 0.005 µM), 0.767. In addition, the figures for the relative viability in experiment [5] (first compound 0.01581 µM) and in experiment [5] (first compound 0.05 µM) were 0.781 and 0.808, respectively.
With NCI-H2405, the relative viability in experiment [1] (first compound 0.001581 µM) is 0.199; in experiment [1] (first compound 0.005 µM) it was 0.24; in experiment [1] (first compound 0.01581 µM), 0.155; in experiment [1] (first compound 0.05 µM), 0.226; in experiment [2] (first compound 0.001581 µM) it was 0.954; in experiment [2] (first compound 0.005 µM), 0.989. For the same cell line, the relative viability in experiment [2] (first compound 0.05 µM) turned out to be 1; in experiment [3] (first compound 0.001581 µM), 0.875; in experiment [3] (first compound 0.005 µM) it was 1.21; in experiment [3] (first compound 0.05 µM), 0.866; in experiment [4] (first compound 0.001581 µM), 0.474; in experiment [4] (first compound 0.005 µM), 0.505. Also, the relative viability stood at 0.475 in experiment [4] (first compound 0.01581 µM); 0.433 in experiment [4] (first compound 0.05 µM); 0.705 in experiment [5] (first compound 0.001581 µM); 0.739 in experiment [5] (first compound 0.005 µM); 0.545 in experiment [5] (first compound 0.01581 µM); 0.709 in experiment [5] (first compound 0.05 µM).
On to PC-3 [JPC-3], for which the relative viability in experiment [1] (first compound 0.001581 µM) was found to be 0.861; in experiment [1] (first compound 0.005 µM), 0.794; in experiment [1] (first compound 0.01581 µM) it was 0.97; in experiment [1] (first compound 0.05 µM) it was 0.193; in experiment [2] (first compound 0.001581 µM) it was 0.933; in experiment [2] (first compound 0.005 µM), 0.944. The relative viability in experiment [2] (first compound 0.01581 µM) was found to be 1.04; in experiment [2] (first compound 0.05 µM), 0.691; in experiment [3] (first compound 0.001581 µM), 0.752; in experiment [3] (first compound 0.005 µM), 0.727; in experiment [3] (first compound 0.01581 µM), 0.664; in experiment [3] (first compound 0.05 µM), 0.486. For the same cell line, the relative viability worked out at 0.483 in experiment [4] (first compound 0.001581 µM); 0.512 in experiment [4] (first compound 0.005 µM); 0.58 in experiment [4] (first compound 0.01581 µM); 0.478 in experiment [4] (first compound 0.05 µM); 0.668 in experiment [5] (first compound 0.001581 µM); 0.627 in experiment [5] (first compound 0.005 µM). Moreover, the relative viability in experiment [5] (first compound 0.01581 µM) was determined as 0.696; in experiment [5] (first compound 0.05 µM), 0.486.
Take NCI-H1666: the relative viability amounted to 0.656 in experiment [1] (first compound 0.001581 µM); 0.814 in experiment [1] (first compound 0.005 µM); 0.757 in experiment [1] (first compound 0.01581 µM); 0.846 in experiment [1] (first compound 0.05 µM); 0.779 in experiment [2] (first compound 0.001581 µM); 0.713 in experiment [2] (first compound 0.005 µM). For the same cell line, the relative viability in experiment [2] (first compound 0.01581 µM) was found to be 0.848; in experiment [2] (first compound 0.05 µM), 0.861; in experiment [3] (first compound 0.001581 µM) it was 0.823; in experiment [3] (first compound 0.005 µM) it was 0.859; in experiment [3] (first compound 0.01581 µM), 1.11; in experiment [3] (first compound 0.05 µM) it was 0.837. Besides, the relative viability in experiment [4] (first compound 0.001581 µM) worked out at 0.678; in experiment [4] (first compound 0.005 µM) it was 0.579; in experiment [4] (first compound 0.01581 µM), 0.575; in experiment [4] (first compound 0.05 µM), 0.661; in experiment [5] (first compound 0.001581 µM), 0.959; in experiment [5] (first compound 0.005 µM), 0.864. The relative viability came to 0.846 in experiment [5] (first compound 0.01581 µM) and 0.852 in experiment [5] (first compound 0.05 µM).
In the case of COR-L 105, the relative viability was found to be 0.374 in experiment [1] (first compound 0.001581 µM); 0.455 in experiment [1] (first compound 0.005 µM); 0.278 in experiment [1] (first compound 0.01581 µM); 0.258 in experiment [1] (first compound 0.05 µM); 0.923 in experiment [2] (first compound 0.001581 µM); 1.02 in experiment [2] (first compound 0.005 µM). Also, the relative viability in experiment [2] (first compound 0.01581 µM) is 0.909; in experiment [2] (first compound 0.05 µM), 1.17; in experiment [3] (first compound 0.001581 µM), 0.8; in experiment [3] (first compound 0.005 µM) it was 0.657; in experiment [3] (first compound 0.01581 µM), 0.746; in experiment [3] (first compound 0.05 µM), 0.813. For the same cell line, the relative viability in experiment [4] (first compound 0.001581 µM) is 0.383; in experiment [4] (first compound 0.005 µM), 0.394; in experiment [4] (first compound 0.01581 µM) it was 0.415; in experiment [4] (first compound 0.05 µM), 0.452; in experiment [5] (first compound 0.001581 µM), 0.445; in experiment [5] (first compound 0.005 µM), 0.517. The relative viability in experiment [5] (first compound 0.01581 µM) stood at 0.427; in experiment [5] (first compound 0.05 µM) it was 0.539.
NCI-H2085: the relative viability was found to be 0.265 in experiment [1] (first compound 0.001581 µM); 0.366 in experiment [1] (first compound 0.005 µM); 0.282 in experiment [1] (first compound 0.01581 µM); 0.355 in experiment [1] (first compound 0.05 µM); 0.755 in experiment [2] (first compound 0.001581 µM); 0.9 in experiment [2] (first compound 0.005 µM). Moreover, the relative viability in experiment [2] (first compound 0.01581 µM) was determined as 0.891; in experiment [2] (first compound 0.05 µM), 0.938; in experiment [3] (first compound 0.001581 µM) it was 1.14; in experiment [3] (first compound 0.005 µM) it was 1.1; in experiment [3] (first compound 0.01581 µM), 1.12; in experiment [3] (first compound 0.05 µM), 1.01. Further, the relative viability in experiment [4] (first compound 0.001581 µM) is 0.504; in experiment [4] (first compound 0.005 µM) it was 0.509; in experiment [4] (first compound 0.01581 µM), 0.459; in experiment [4] (first compound 0.05 µM), 0.599; in experiment [5] (first compound 0.001581 µM), 0.433; in experiment [5] (first compound 0.005 µM), 0.643. Further, the relative viability came to 0.394 in experiment [5] (first compound 0.01581 µM) and 0.61 in experiment [5] (first compound 0.05 µM).
Consider SK-MES-1, for which the relative viability is 0.246 in experiment [1] (first compound 0.001581 µM); 0.445 in experiment [1] (first compound 0.005 µM); 0.367 in experiment [1] (first compound 0.01581 µM); 0.279 in experiment [1] (first compound 0.05 µM); 1.1 in experiment [2] (first compound 0.001581 µM); 1.16 in experiment [2] (first compound 0.005 µM). Besides, the relative viability in experiment [2] (first compound 0.01581 µM) was 1.04; in experiment [2] (first compound 0.05 µM), 1.17; in experiment [3] (first compound 0.001581 µM) it was 1.22; in experiment [3] (first compound 0.005 µM), 1.3; in experiment [3] (first compound 0.01581 µM) it was 1.25; in experiment [3] (first compound 0.05 µM), 1.15. In addition, the relative viability in experiment [4] (first compound 0.001581 µM) is 0.286; in experiment [4] (first compound 0.005 µM), 0.32; in experiment [4] (first compound 0.01581 µM) it was 0.332; in experiment [4] (first compound 0.05 µM) it was 0.291; in experiment [5] (first compound 0.001581 µM), 0.675; in experiment [5] (first compound 0.005 µM) it was 0.949. Also, the relative viability was determined as 0.542 in experiment [5] (first compound 0.01581 µM) and 1 in experiment [5] (first compound 0.05 µM).

The record behind these values is the supplement of paper PMC10307832.
